Where “and” joins values, the source holds several entries; their conditions need not be identical. Equal entries are not always repeated.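 Interpolation was linear, between the two tested concentrations surrounding the appropriate level; five concentrations were tested over 48 hours in 96-well plates. GI50 is the concentration that inhibits growth by half. Definition used: TGI = concentration required for complete inhibition of growth.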
Tests used:
Assay in all cases: growth of human tumour cells (NCI), 48 h
[1] = tested on: LOX IMVI melanoma
[2] = tested on: M14 melanoma
[3] = tested on: MOLT-4 leukemia
[4] = tested on: OVCAR-8 ovarian
[5] = tested on: SF-268 CNS
[6] = tested on: SF-295 CNS
[7] = tested on: SF-539 CNS
[8] = tested on: SW-620 colon
[9] = tested on: SNB-75 CNS
[10] = tested on: DU-145 prostate

Row | SMILES | TGI [1] [µM] | TGI [2] [µM] | TGI [3] | TGI [4] [µM] | TGI [5] [µM] | TGI [6] [µM] | TGI [7] [µM] | TGI [8] [µM] | TGI [9] [µM] | GI50 [1] [µM] | GI50 [2] [µM] | GI50 [3] [µM] | GI50 [4] [µM] | GI50 [5] [µM] | GI50 [6] | GI50 [9] [µM] | GI50 [8] [µM] | GI50 [7] [µM] | GI50 [10] [µM] | TGI [10] [µM]
1 | CCOC(=O)C(C(=O)OCC)=C1N[C@H](C(=O)OCC)CS1 | > 100 | > 100 | > 100 µM | > 100 | > 100 | > 100 | > 100 | > 100 |  |  |  |  |  |  |  |  |  |  |  | 
2 | CCCCCNC(=O)c1c(O)[nH]c(=S)[nH]c1=O | > 100 | > 100 | > 100 µM | > 100 | > 100 | > 100 | > 100 | > 100 | > 100 |  |  |  |  |  |  |  |  |  |  | 
3 | O=C(c1nc2ccc(Cl)cc2[nH]c1=O)C(O)c1ccc2c(c1)OCO2 (configuration not stated) | > 100 | > 100 | > 100 µM | > 100 | > 100 | > 100 |  | > 100 | > 100 |  |  |  |  |  |  |  |  |  |  | 
4 | Cc1c(C(=O)/C=C/c2c(Cl)cccc2Cl)c(=O)n(-c2ccccc2)n1C | 41.8 |  | > 100 µM | > 100 | > 100 | 75.9 |  | 25.9 |  |  |  |  |  |  |  |  |  |  |  | 
5 | CC(=O)c1ccc(NC(=O)C(=O)C(C(=O)c2ccc(Cl)c(Cl)c2)C2OC(=O)c3ccccc32)cc1 (configuration not stated) | 32.6 | 41 | > 100 µM | 27.6 | 38.2 |  |  | > 100 |  |  |  |  |  |  |  |  |  |  |  | 
6 | CCC1CC(C)=CCN1S(=O)(=O)c1ccc(C)cc1 (configuration not stated) | 33.6 | 57.5 | 83.6 µM | > 100 | 62.1 | > 100 | 39.8 |  | 50.6 |  |  |  |  |  |  |  |  |  |  | 
7 | O=C(O)c1cccc2cccc(C(=O)O)c12.[Hg] | 27.9 | 27 | 42.7 µM | 46.2 | 26.5 | 32.2 |  | 32 | 36.9 | 14.7 | 14 | 19.6 | 20.5 | 11.5 | 17.8 µM | 18.9 | 12.7 |  |  | 
8 | CCOC(=O)N[C@@H]1C2CC(=O)C(O2)[C@@H]1OC (some centres not stated) | > 100 | > 100 | > 100 µM | > 100 | > 100 | > 100 | > 100 | > 100 | > 100 |  |  |  |  |  |  |  |  |  |  | 
9 | CCOC(=O)C(=O)Nc1c(C)cccc1C(C)C |  | > 100 | > 100 µM | > 100 | > 100 | > 100 | > 100 | > 100 | > 100 |  |  |  |  |  |  |  |  |  |  | 
10 | Cc1cc(=O)oc2c(OS(C)(=O)=O)c(OS(C)(=O)=O)ccc12 | > 100 | > 100 | > 100 µM | > 100 | > 100 | > 100 | > 100 | > 100 |  |  |  |  |  |  |  |  |  |  |  | 
11 | CCCCCCCCCCCCCCCCCC(=O)OCC(C[As](=O)(O)O)OC(=O)CCCCCCCCCCCCCCCCC (configuration not stated) |  | > 100 | > 100 µM | > 100 | > 100 | > 100 | > 100 | 33.8 | 81.6 |  |  |  |  |  |  |  |  |  |  | 
12 | CCC[CH2][Sn]1([CH2]CCC)[O]CC(CN2CCOCC2)[O]1 (configuration not stated) | 5.7 | 10.3 | 7.88 µM | 10.8 | 5.52 | 10.9 | 8.59 | 5.44 | 7.05 | 2.02 | 2.86 | 2.22 | 3.35 | 1.79 | 2.46 µM | 2.16 | 1.99 | 2.96 |  | 
13 | CN(C)C1=NC2=S(SC(Nc3ccccc3)=N2)S1 (configuration not stated) | > 100 | > 100 | > 100 µM | > 100 | > 100 | 88.9 | 60.6 | > 100 | 60.6 |  |  |  |  |  |  |  |  |  |  | 
14 | NCCCNCCSSC/C=C\CSSCCNCCCN | > 100 | > 100 | 62 µM and 57.3 µM | > 100 | > 100 | > 100 | > 100 | > 100 | > 100 |  |  |  |  |  | 81.3 µM and 39.9 µM |  |  |  |  | 
15 | COc1cc(/C=C2\C(=O)N(c3ccccc3)c3ccccc32)cc(OC)c1OC | 4.61 | 26.9 | 10.8 µM | 45.5 | 15.3 | 81.3 | 91.7 | > 100 | 18.8 | 2.24 | 11.3 | 2.33 | 8.83 | 4.32 | 17.8 µM | 4.82 | 5.96 | 5.38 |  | 
16 | O=NN/C(=C1\Nc2ccc([N+](=O)[O-])cc2NC1=O)C(O)c1ccc([N+](=O)[O-])cc1 (configuration not stated) | > 100 | > 100 | > 100 µM | > 100 | > 100 | > 100 | > 100 | > 100 | > 100 |  |  |  |  |  |  |  |  |  |  | 

Row | SMILES | TGI [1] [µM] | TGI [2] [µM] | TGI [3] | TGI [4] [µM] | TGI [5] [µM] | TGI [6] [µM] | TGI [7] [µM] | TGI [8] [µM] | TGI [9] [µM] | GI50 [1] [µM] | GI50 [2] [µM] | GI50 [3] [µM] | GI50 [4] [µM] | GI50 [5] [µM] | GI50 [6] | GI50 [9] [µM] | GI50 [8] [µM] | GI50 [7] [µM] | GI50 [10] [µM] | TGI [10] [µM]
17 | COC1=CC(c2ccc[nH]2)=N/C1=C\c1[nH]c(C)c(C(C)=O)c1C |  |  | > 100 µM | > 100 | > 100 | > 100 | 54.4 |  |  |  |  | 0.032 | 0.326 | 0.854 | 10 µM |  | 0.0605 | 2.15 | 0.355 | > 100
18 | Cc1ccc(C(=O)C#Cc2c[nH]c(=O)[nH]c2=O)cc1 | 15 | 35 | 23.8 µM | 25.1 | 26.2 | > 100 | 15.5 | 20.9 | 34.4 |  |  |  |  |  |  |  |  |  |  | 
19 | COc1cc(Nc2nc3cc(C(F)(F)F)ccc3nc2-c2ccccc2)cc(OC)c1OC | > 100 | > 100 | > 100 µM | > 100 | > 100 | > 100 | > 100 | > 100 | > 100 |  |  |  |  |  |  |  |  |  |  | 
20 | CCCc1nc(NC#N)nc(C(=O)NC23CC4CC(CC(C4)C2)C3)c1C | > 100 | > 100 | > 100 µM | > 100 | > 100 | > 100 | > 100 | > 100 | > 100 |  |  |  |  |  |  |  |  |  |  | 
21 | CC1=NC(C(C)C)C(=O)O1 (configuration not stated) |  | > 100 | > 100 µM | > 100 | > 100 | > 100 | > 100 | 25.8 | > 100 |  |  |  |  |  |  |  |  |  |  | 
22 | COC(=O)C(Cc1ccccc1)NC(=O)Cn1ccnc1[N+](=O)[O-] (configuration not stated) | > 100 | > 100 | > 100 µM | > 100 | > 100 | > 100 | > 100 | > 100 | > 100 |  |  |  |  |  |  |  |  |  |  | 
23 | COc1ccc(NC(=O)CC(=O)N2N=C(N(CCC#N)c3cccc(C)c3)CC2c2ccccc2)cc1 (configuration not stated) |  | > 100 | > 100 µM | > 100 | > 100 | > 100 | > 100 | > 100 | > 100 |  |  |  |  |  |  |  |  |  |  | 
24 | COC1OC(COS(=O)(=O)c2ccc(C)cc2)C(O)C(OS(=O)(=O)c2ccc(C)cc2)C1OS(=O)(=O)c1ccc(C)cc1 (configuration not stated) |  | > 100 | > 100 µM | > 100 | > 100 | > 100 | > 100 | > 100 | > 100 |  |  |  |  |  |  |  |  |  |  | 
25 | Oc1ccc(-c2cn3cc(Cl)sc3n2)cc1 | 86.2 | 56.8 | 34.3 µM | > 100 | 80.2 | > 100 | > 100 | > 100 |  | 32.3 | 20.1 | 16.5 | 56.3 | 12.2 | 47.3 µM |  | 56.9 | > 100 |  | 
26 | CC(=O)OC1CC2C(C)(C)C(=O)C=C[C@]2(C)C2CCC3(C)C(c4ccoc4)[C@@H](O)[C@H]4O[C@]43[C@]12C (some centres not stated) | 31.3 | 37.7 | 88.8 µM | 36.2 | 51.8 | 42.5 | 34.2 | 35.4 | 57.3 |  |  |  |  |  |  |  |  |  |  | 
27 | COc1ccc(-c2cc(-c3cc(C)ccc3O)[nH]c(=O)n2)cc1 | > 100 | > 100 | > 100 µM | > 100 | > 100 | > 100 | > 100 | > 100 | 66.8 |  |  |  |  |  |  |  |  |  |  | 
28 | COC(=O)C1=C(CS(=O)c2ccc([N+](=O)[O-])cc2[N+](=O)[O-])ON(C)C1c1ccccc1 (configuration not stated) | 35 | > 100 | 48.5 µM | > 100 | > 100 | > 100 | 56.2 | 48.4 | 77.6 |  |  |  |  |  |  |  |  |  |  | 
29 | O=C1CC[C@H](c2ccc(O)c3c2C(=O)[C@@H]2O[C@@H]2C3=O)c2cccc(O)c21 | 3.86 | 4.09 | 17.4 µM | 11.2 | 6.17 | 29.7 | 5.46 | 4.92 | > 100 | 0.976 | 1.9 | 2.71 | 3.36 | 2.32 | 15.4 µM | 26.7 | 1.6 | 2.42 |  | 
30 | CC1=CC(=O)c2c(C=O)c(O)c(O)c(C(C)C)c2C1=O | 27.6 | > 100 | 66.3 µM | > 56.5 | 77.2 |  | 58.4 |  | > 100 |  |  |  |  |  |  |  |  |  |  | 
31 | c1ccc(CN2CCCCC(Sc3ccccc3)CC2)cc1 (configuration not stated) | 30.6 | 32 | 50.7 µM | > 100 | > 100 | > 100 | 77.4 | 4.98 | > 100 |  |  |  |  |  |  |  |  |  |  | 
32 | NC(=O)NC1=NC(Cc2ccccc2)C(=O)N1Cc1ccccc1 (configuration not stated) | > 100 | > 100 | > 100 µM | > 100 | > 100 | > 100 | > 100 | > 100 | > 100 |  |  |  |  |  |  |  |  |  |  | 
